Data from patent US20250066445A1, “OBESITY TREATMENT AND PREVENTION METHODS” (VAULT BIOSCIENCES, INC., priority 2022, published 2025).

Legend:
Format in all cases: in vivo, human
[1] = Example 13 clinical study combining dulaglutide and fasting; settings: One-Meal-A-Day, dose weeks 1-4: 0.2/0.375/0.375/0.6 mg
Description: Example 13—Clinical Study of Combining Dulaglutide and Fasting Patients are subject to a combination HMT/HNT treatment protocol as described in Table 17 below. […] [table]

[2] = Example 14 clinical study combining dulaglutide and fasting; settings: 15-hour fasting, dose weeks 1-4: 0.2/0.375/0.375/0.6 mg
Description: Example 14—Clinical Study of Combining Dulaglutide and Fasting Patients are subject to a combination HMT/HNT treatment protocol as described in Table 18 below. […] [table]

[3] = Example 15 clinical study combining dulaglutide and fasting; settings: 18-hour fasting, dose weeks 1-4: 0.2/0.375/0.375/0.6 mg
Description: Example 15—Clinical Study of Combining Dulaglutide and Fasting Patients are subject to a combination HMT/HNT treatment protocol as described in Table 19 below. […] [table]

[4] = Example 1 clinical study combining semaglutide (injection) and fasting, Patient 1; settings: One-Meal-A-Day
Description: Example 1—Clinical Study of Combining Semaglutide (Injection) and Fasting
Patient 1 was subject to a combination HMT/HNT treatment protocol as described below.

[5] = Example 2 clinical study combining semaglutide (injection) and fasting; settings: 15-hour fasting, dose weeks 1-4: .25/.50/.50/1 mg
Description: Example 2—Clinical Study of Combining Semaglutide (injection) and Fasting Patients are subject to a combination HMT/HNT treatment protocol as described in Table 6 below. […] [table]

[6] = no exercise, no calorie counting
[7] = starting weight 282 lbs, 30 days, dose weeks 1-4: .25/.50/.50/1 mg, no exercise, no calorie counting

Dulaglutide
Hunger [1]: no discernable or unusual hunger
Therapeutic effects (e.g. weight loss) [1, 6]: Desirable therapeutics effects (e.g. weigh loss) are achieved
Hunger [2]: no discernable or unusual hunger
Therapeutic effects (e.g. weight loss) [2, 6]: Desirable therapeutics effects (e.g. weigh loss) are achieved
Hunger [3]: no discernable or unusual hunger
Therapeutic effects (e.g. weight loss) [3, 6]: Desirable therapeutics effects (e.g. weigh loss) are achieved

Semaglutide
Hunger ([4]; 30 days, dose weeks 1-4: .25/.50/.50/1 mg): No discernable/unusual hunger
Hunger ([4]; 30 days, dose weeks 1-4: .25/.50/.50/1 mg, listed as Semaglutide (Injection)): no discernable or unusual hunger
Weight lost ([4]; in 30 days, no exercise, no caloric restrictions): 30 pounds
% Bodyweight Reduction ([4]; starting weight 282 lbs, 30 days, dose weeks 1-4: .25/.50/.50/1 mg): −9.6%
% Bodyweight Reduction ([4]; starting weight 282 lbs, 30 days, dose weeks 1-4: .25/.50/.50/1 mg, listed as Semaglutide (Injection)): approximately 9.6%
Bodyweight reduction [4, 7]: −30 lbs
Ending Weight [4, 7]: 252 lbs
Hunger [5]: no discernable or unusual hunger
Therapeutic effects (e.g. weight loss) [5, 6]: Desirable therapeutics effects (e.g. weigh loss) are achieved
